Series [1] deals with cervical cancer patients. The conditions noted are these: two weeks after vaccination; PBMC stimulated in vitro with 5 µg/ml PADRE peptide; proliferation index > 5; cited from earlier work.
The next series concerns the target B*3501 (Homo sapiens, UniProt P01889, A329T/A93T/A95T/C349S/D201E/D98Y/E176V/E187L/E204Q/E69T/I218V/K202T/L119I/Q94N/R155S/R180L/S121R/S35A/S48A/T118I/V127L/V306I/V36M/Y140S/Y91F). Put plainly: Class I peptide-binding assay, B*3501.
The next series has as its system melanoma patients. The conditions noted are these: melanoma patients vaccinated with peptide-pulsed DC or the peptide alone; cited from earlier work.
The target of a further series is HLA-A*0101 (Homo sapiens, UniProt P04439, A114D/A174V/A182V/D101N/D185E/E176A/E190D/L180R/Q94H/R68K/S129P/T187R/V100A/V91M/W191G). Kind of series: Class I peptide-binding assay, A*0101. The conditions noted are these: Table 18a, CEA-derived A1 binders.
In another series the target is B*5401 (Homo sapiens, UniProt P01889, A329T/C349S/D138N/D201E/E176V/E187T/E204Q/E69G/I76V/K202T/L119W/R155S/R180L/S121T/S35A/S48A/V127L/V306I/V36M/Y140L). Put plainly: Class I peptide-binding assay, B*5401. The conditions noted are these: Table 17a.
The target in a further series is HLA-A*2402 (Homo sapiens, UniProt P04439, D101N/D140Y/D185E/E176V/E190D/F33S/G103R/G107R/I119L/I121M/I306V/K335N/L105A/L180Q/L300P/N151K/N90K/Q86E/Q94H/R106L/R138H/R89G/T104I/T345S/V100E/W191G/Y123F). Put plainly: Class I peptide-binding assay, A*2402. The conditions noted are these: Table 19a, CEA-derived A24 binders.
Series [2] relates to cervical cancer patients. The conditions noted are these: cited from earlier work.

As to `CC(C)C[C@H](NC(=O)[C@@H](NC(=O)[C@H](Cc1c[nH]c2ccccc12)NC(=O)[C@H](C)NC(=O)[C@H](C)NC(=O)[C@@H](NC(=O)[C@H](CC1CCCCC1)NC(=O)[C@H](CCCCN)NC(=O)[C@@H](C)N)C(C)C)[C@@H](C)O)C(=O)N[C@@H](CCCCN)C(=O)N[C@@H](C)C(=O)N[C@@H](C)C(=O)N[C@H](C)C(N)=O` [aKXVAAWTLKAAa-NH2], the “patients displaying PADRE-specific proliferation” value in the series on cervical cancer patients [1] is given as 4/12. Consider `CC[C@H](C)[C@H](NC(=O)[C@@H]1CCCN1C(=O)[C@H](CC(C)C)NC(=O)[C@@H]1CCCN1C(=O)CNC(=O)[C@H](CCC(=O)O)NC(=O)[C@H](CCCNC(=N)N)NC(=O)[C@@H]1CCCN1C(=O)[C@H](CO)NC(=O)[C@@H]1CCCN1C(=O)[C@@H]1CCCN1)C(=O)O` [Her2/neu.1149.I11], for which the IC50 (in general, the concentration at which inhibition is half-maximal) at B*3501 (Table 17b) came to 1 µM. The compound `CC[C@H](C)[C@H](N)C(=O)N1CCC[C@H]1C(=O)N[C@@H](Cc1c[nH]c2ccccc12)C(=O)N[C@@H](CCC(N)=O)C(=O)N[C@@H](CCCNC(=N)N)C(=O)N[C@@H](CC(C)C)C(=O)N[C@@H](CC(C)C)C(=O)N[C@@H](CC(C)C)C(=O)N[C@H](C(=O)N[C@H](C(=O)O)[C@@H](C)CC)[C@@H](C)O` [CEA.13I10] yielded an IC50 on B*3501 (Table 17a) of 10 µM. In the case of `CC[C@H](C)[C@H](NC(=O)[C@@H]1CCCN1C(=O)[C@H](CC(=O)O)NC(=O)[C@@H](NC(=O)[C@@H](N)CCC(=O)O)C(C)C)C(=O)NCC(=O)N[C@@H](Cc1c[nH]cn1)C(=O)N[C@@H](CC(C)C)C(=O)N[C@@H](Cc1ccc(O)cc1)C(=O)O` [MAGE3.168], in the series on melanoma patients, the “tumor regression in vaccinated patients” value is on record as “tumor regression was observed”. Regarding `CC[C@H](C)[C@H](N)C(=O)N[C@H](C(=O)N[C@@H](CCC(=O)O)C(=O)N[C@@H](CCCCN)C(=O)N[C@@H](CC(N)=O)C(=O)N[C@@H](CO)C(=O)NCC(=O)N[C@@H](CC(C)C)C(=O)N[C@@H](Cc1ccc(O)cc1)C(=O)O)[C@@H](C)O` [compound 179], the IC50 on HLA-A*0101 worked out at 641 nM. That is a sub-micromolar value.

As to `CC[C@H](C)[C@H](N)C(=O)N1CCC[C@H]1C(=O)N[C@@H](Cc1c[nH]c2ccccc12)C(=O)N[C@@H](CCC(N)=O)C(=O)N[C@@H](CCCNC(=N)N)C(=O)N[C@@H](CC(C)C)C(=O)N[C@@H](CC(C)C)C(=O)N[C@@H](CC(C)C)C(=O)N[C@H](C(=O)N[C@@H](C)C(=O)O)[C@@H](C)O` [CEA.13], the IC50 came out at 10 µM at B*3501 (Table 17a) and 32 nM at B*5401. `CC(C)C[C@H](NC(=O)[C@H](CO)NC(=O)[C@H](CCC(N)=O)NC(=O)CNC(=O)[C@H](CC(N)=O)NC(=O)[C@@H](NC(=O)[C@H](Cc1c[nH]c2ccccc12)NC(=O)[C@H](Cc1c[nH]c2ccccc12)NC(=O)[C@@H](N)CC(C)C)C(C)C)C(=O)O` [compound 283] showed an IC50 on HLA-A*2402 of 1460 nM. For the compound `CC(C)C[C@H](NC(=O)[C@@H](NC(=O)[C@H](Cc1c[nH]c2ccccc12)NC(=O)[C@H](C)NC(=O)[C@H](C)NC(=O)[C@@H](NC(=O)[C@H](CC1CCCCC1)NC(=O)[C@H](CCCCN)NC(=O)[C@@H](C)N)C(C)C)[C@@H](C)O)C(=O)N[C@@H](CCCCN)C(=O)N[C@@H](C)C(=O)N[C@@H](C)C(=O)N[C@H](C)C(N)=O` [PADRE, aKXVAAWTLKAAa-NH2], in the series with cervical cancer patients [2] (95% interval 10-65%), the responding patients was 33%. Moreover, the safety in trial entry in the series with cervical cancer patients [2] (patients with recurrent or residual cervical carcinoma) is “favorable safety profile”. `CC[C@H](C)[C@H](NC(=O)[C@H](CO)NC(=O)[C@H](Cc1ccc(O)cc1)NC(=O)CNC(=O)[C@H](Cc1ccccc1)NC(=O)[C@H](CC(C)C)NC(=O)[C@H](Cc1c[nH]cn1)NC(=O)[C@H](CCC(N)=O)NC(=O)[C@@H]1CCCN1C(=O)[C@@H](N)CC(C)C)C(=O)O` [CEA.58I10] gave an IC50 on B*3501 (Table 17a) of 10 µM.

The record behind these values is EP1903056A2, “HLA-A1, -A2 -A3, -A24, -B7, and -B44 tumor associated antigen peptides and compositions” (priority 2002, dated 2004).
